{
  "source": "patent US20150290260A1",
  "about": "“METHODS OF USE FOR PROBIOTICS AND PREBIOTICS” (Mead Johnson Nutrition Company, priority 2014, published 2015)",
  "key": {"[1]": {"system": "neurotransmitters (biogenic monoamines) in the brain", "experiment": "Neurotransmitter levels in the brain by HPLC, neonatal zymosan visceral hyperalgesia rats", "assay_type": "in vivo", "conditions": "brain stem, vs non-LGG treated rats, LGG P21-P60, FIG. 6A", "excerpt": "This example describes the effect of LGG on the neurotransmitter levels in the brain. Briefly, chronic visceral hyperalgesia was induced in rats by administration of intracolonic zymosan (or normal saline for control) for three consecutive days during postnatal day 14-16 (P14-P16). LGG treatment was initiated after weaning (P21) and continued until P60. The levels of neurotransmitters and amino acids were quantified in the frontal cortex, sub-cortex, brain stem and cerebellum.\nThe quantitative assessment of neurotransmitters was conducted using HPLC-based separation followed by fluorescent and/or electrochemical detection. Briefly, brain sections were homogenized, using a tissue dismembrator, in 100-750 ul of 0.1 M TCA, which contains 10-2 M sodium acetate, 10^-4 M EDTA, 5 ng/ml isoproterenol (as internal standard) and 10.5% methanol (pH 3.8). Samples were spun in a microcentrifuge at 10000 g for 20 minutes. Samples of the supernatant were then analyzed for neurotransmitters (biogenic monoamines). Biogenic amines were determined by a specific HPLC assay utilizing an Antec Decade II (oxidation: 0.4) (3 mm GC WE, HYREF) electrochemical detector operated at 33° C. Twenty I samples of the supernatant were injected using a Water 2707 autosampler onto a Phenomenex Kintex (2.6u, 100 Å) C18 HPLC column (100×4.60 mm). Biogenic amines were eluted with a mobile phase consisting of 89.5% 0.1 M TCA, 10-2 M sodium acetate, 10^-4 M EDTA and 10.5% methanol (pH 3.8). Solvent was delivered at 0.6 ml/min using a Waters 515 HPLC pump. Using this HPLC solvent the following biogenic amines eluted in the following order: noradrenaline, Adrenaline, DOPAC, Dopamine, 5-HIAA, HVA, 5-HT, and 3-MT. HPLC control and data acquisition were managed by Empower software."}, "[2]": {"experiment": "Viscera-motor response (VMR) to colorectal distension (CRD), rat colonic zymosan-treated hyperalgesia model", "assay_type": "in vivo, rats", "method": "Example 3 utilized a rat colonic zymosan-treated hyperalgesia model (i.e. a model of post-inflammatory visceral pain sensitivity). Zymosan was injected into the colon during the neonatal period producing short-term inflammation and subsequent long-term colonic hypersensitivity.\nIn this experiment, weanling rats were fed a control diet or control diet plus LGG and/or PDX/GOS for 40 days. The VMR to CRD was quantified using electromyographic (EMG) recordings from the external oblique muscle of the abdomen as an objective measure of visceral sensation in all groups. A stimulus-response function to graded CRD was constructed to test the colonic intensity dependent increase in EMG activity change of external oblique muscle."}},
  "data": [
    {"substance": "Lactobacillus rhamnosus GG [LGG]", "values": [
      {"measurement": "level of 5-hydroxyindoleacetic acid (5-HIAA)", "setting": "[1]", "value": "significant increase"},
      {"measurement": "level of noradrenaline (NA)", "setting": "[1]", "value": "significant increase"},
      {"measurement": "level of serotonin (5-HT)", "setting": "[1]", "value": "significant increase"},
      {"measurement": "visceral hypersensitivity", "setting": "[2]; neonatal colonic zymosan model", "value": "attenuated"},
      {"measurement": "sensitivity to pain (EMG recordings)", "setting": "[2]; p<0.05 vs Control+Zymosan, n=10, fed 40 days", "value": "significantly attenuated"},
      {"measurement": "viscera-motor response (VMR) to CRD", "setting": "[2]; zymosan-treated rats, FIG. 7", "value": "significantly attenuated"}
    ]}
  ]
}
